{"source": "patent US20100267561A1", "about": "“HERBICIDAL PYRIDAZINONE DERIVATIVES” (priority 2007, published 2010)", "format_in_all_cases": "in vivo", "key": {"[1]": {"tested_on": "bermudagrass (Cynodon dactylon)", "test": "Test B pre-/postemergence plant response", "conditions": "for Bermudagrass plant response rating: 8 g ai/ha", "in_short": "(§1)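 Preemergence and postemergence (plants 2-18 cm, 1- to 4-leaf stage) applications used test chemicals in a non-phytotoxic solvent with surfactant. Plants were held in a greenhouse 13 to 15 days, then rated visually against controls on a 0-100 scale (0 no effect, 100 complete control).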"}, "[2]": {"tested_on": "catchweed bedstraw (Galium aparine)", "test": "Test B pre-/postemergence plant response", "conditions": "Preemergence", "in_short": "as §1"}, "[3]": {"tested_on": "cocklebur (Xanthium strumarium)", "test": "Test B pre-/postemergence plant response", "conditions": "for Cocklebur plant response rating: 8 g ai/ha", "in_short": "as §1"}, "[4]": {"tested_on": "downy bromegrass (Bromus tectorum)", "test": "Test B pre-/postemergence plant response", "conditions": "for Bromegrass, Downy plant response rating: 8 g ai/ha", "in_short": "as §1"}, "[5]": {"tested_on": "large crabgrass (Digitaria sanguinalis)", "test": "Test B pre-/postemergence plant response", "conditions": "for Crabgrass, Large plant response rating: 8 g ai/ha", "in_short": "as §1"}, "soybean (Glycine max)": {"tested_on": "soybean (Glycine max)", "test": "Test B pre-/postemergence plant response", "conditions": "for Soybean plant response rating: 8 g ai/ha", "in_short": "as §1"}, "[6]": {"tested_on": "velvetleaf (Abutilon theophrasti)", "test": "Test B pre-/postemergence plant response", "conditions": "for Velvetleaf plant response rating: 8 g ai/ha", "in_short": "as §1"}, "[7]": {"tested_on": "wheat (Triticum aestivum)", "test": "Test B pre-/postemergence plant response", "conditions": "for Wheat plant response rating: 8 g ai/ha", "in_short": "as §1"}, "wild oat (Avena fatua)": {"tested_on": "wild oat (Avena fatua)", "test": "Test B pre-/postemergence plant response", "conditions": "for Oat, Wild plant response rating: 8 g ai/ha", "in_short": "as §1"}, "[8]": {"tested_on": "woolly cupgrass (Eriochloa villosa)", "test": "Test B pre-/postemergence plant response", "conditions": "for Cupgrass, Woolly plant response rating: 8 g ai/ha", "in_short": "as §1"}, "[9]": {"tested_on": "barnyardgrass (Echinochloa crus-galli)", "test": "Test B flooded paddy test plant response", "in_short": "(§2)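 Compounds were added directly to paddy water over 2-leaf-stage plants in pots flooded 3 cm above soil, water depth maintained. Visual injury scored against controls after 13 to 15 days in greenhouse, 0 (none) to 100 (complete control); dash indicates no result.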"}, "[10]": {"tested_on": "ducksalad (Heteranthera limosa)", "test": "Test B flooded paddy test plant response", "in_short": "as §2"}, "rice (Oryza sativa)": {"tested_on": "rice (Oryza sativa)", "test": "Test B flooded paddy test plant response", "in_short": "as §2"}, "[11]": {"tested_on": "umbrella sedge (Cyperus difformis)", "test": "Test B flooded paddy test plant response", "in_short": "as §2"}, "[12]": {"conditions": "Postemergence, 16 g ai/ha, scale 0 to 100"}, "[13]": {"conditions": "Postemergence, 31 g ai/ha, scale 0 to 100, 0 no effect, 100 complete control"}, "[14]": {"conditions": "Postemergence, 62 g ai/ha, scale 0 to 100, 0 no effect, 100 complete control"}, "[15]": {"conditions": "Preemergence, 16 g ai/ha, scale 0 to 100 (0 no effect, 100 complete control)"}, "[16]": {"conditions": "Preemergence, 31 g ai/ha, 0 to 100 scale, 0 no effect, 100 complete control"}, "[17]": {"conditions": "Preemergence, 62 g ai/ha, scale 0 to 100"}, "[18]": {"conditions": "Flood (flooded paddy test), 62 g ai/ha, scale 0 to 100, 0 no effect, 100 complete control"}, "[19]": {"conditions": "Flood (flooded paddy test), 125 g ai/ha, scale 0 to 100, 0 no effect, 100 complete control"}, "[20]": {"conditions": "Flood (flooded paddy test), 250 g ai/ha, scale 0 to 100, 0 no effect, 100 complete control"}, "[21]": {"conditions": "Flood, 31 g ai/ha, scale 0 to 100"}}, "data": [{"compound": "Cc1cc(-c2ccc(Cl)cc2)nn1-c1c(OC(=O)c2ccccc2Cl)cnn(C)c1=O", "note": "[Compound 38]", "values": [{"measurement": "Bermudagrass plant response rating", "setting": "[1]; postemergence, 0-100 scale", "result": 40}, {"measurement": "Plant response rating, Bermudagrass", "setting": "[1]; [12]", "result": 85}, {"measurement": "Plant response rating, Bermudagrass", "setting": "[1]; [13]", "result": 100}, {"measurement": "Plant response rating, Bermudagrass", "setting": "[1]; [14]", "result": 100}, {"measurement": "Bermudagrass plant response rating", "setting": "[1]; Preemergence, scale 0 to 100 (0 no effect, 100 complete control)", "result": 60}, {"measurement": "Plant response rating, Bermudagrass", "setting": "[1]; [15]", "result": 100}, {"measurement": "Plant response rating, Bermudagrass", "setting": "[1]; [16]", "result": 100}, {"measurement": "Plant response rating, Bermudagrass", "setting": "[1]; [17]", "result": 100}, {"measurement": "Plant response rating, Galium", "setting": "[2]; 16 g ai/ha, scale 0 to 100 (0 no effect, 100 complete control)", "result": 0}, {"measurement": "Plant response rating, Galium", "setting": "[2]; 31 g ai/ha, 0 to 100 scale, 0 no effect, 100 complete control", "result": 0}, {"measurement": "Plant response rating, Galium", "setting": "[2]; 62 g ai/ha, scale 0 to 100", "result": 0}, {"measurement": "Galium plant response rating", "setting": "[2]; 8 g ai/ha, scale 0 to 100", "result": 0}, {"measurement": "Cocklebur plant response rating", "setting": "[3]; postemergence, 0-100 scale", "result": 0}, {"measurement": "Plant response rating, Cocklebur", "setting": "[3]; [12]", "result": 0}, {"measurement": "Plant response rating, Cocklebur", "setting": "[3]; [13]", "result": 0}, {"measurement": "Plant response rating, Cocklebur", "setting": "[3]; [14]", "result": 0}, {"measurement": "Plant response rating, Cocklebur", "setting": "[3]; [15]", "result": 0}, {"measurement": "Plant response rating, Cocklebur", "setting": "[3]; [16]", "result": 0}, {"measurement": "Plant response rating, Cocklebur", "setting": "[3]; [17]", "result": 0}, {"measurement": "Cocklebur plant response rating", "setting": "[3]; Preemergence, scale 0 to 100", "result": 0}, {"measurement": "Bromegrass, Downy plant response rating", "setting": "[4]; postemergence, 0-100 scale", "result": 30}, {"measurement": "Plant response rating, Bromegrass, Downy", "setting": "[4]; [12]", "result": 45}, {"measurement": "Plant response rating, Bromegrass, Downy", "setting": "[4]; [13]", "result": 50}, {"measurement": "Plant response rating, Bromegrass, Downy", "setting": "[4]; [14]", "result": 60}, {"measurement": "Plant response rating, Bromegrass, Downy", "setting": "[4]; [15]", "result": 55}, {"measurement": "Plant response rating, Bromegrass, Downy", "setting": "[4]; [16]", "result": 60}, {"measurement": "Plant response rating, Bromegrass, Downy", "setting": "[4]; [17]", "result": 90}, {"measurement": "Bromegrass, Downy plant response rating", "setting": "[4]; Preemergence, scale 0 to 100", "result": 55}, {"measurement": "Crabgrass, Large plant response rating", "setting": "[5]; postemergence, 0-100 scale", "result": 70}, {"measurement": "Plant response rating, Crabgrass, Large", "setting": "[5]; [12]", "result": 70}, {"measurement": "Plant response rating, Crabgrass, Large", "setting": "[5]; [13]", "result": 90}, {"measurement": "Plant response rating, Crabgrass, Large", "setting": "[5]; [14]", "result": 100}, {"measurement": "Plant response rating, Crabgrass, Large", "setting": "[5]; [15]", "result": 98}, {"measurement": "Plant response rating, Crabgrass, Large", "setting": "[5]; [16]", "result": 100}, {"measurement": "Plant response rating, Crabgrass, Large", "setting": "[5]; [17]", "result": 100}, {"measurement": "Crabgrass, Large plant response rating", "setting": "[5]; Preemergence, scale 0 to 100", "result": 45}, {"measurement": "Soybean plant response rating", "setting": "soybean (Glycine max); postemergence, 0-100 scale", "result": 0}, {"measurement": "Plant response rating, Soybean", "setting": "soybean (Glycine max); [12]", "result": 0}, {"measurement": "Plant response rating, Soybean", "setting": "soybean (Glycine max); [14]", "result": 0}, {"measurement": "Plant response rating, Soybean", "setting": "soybean (Glycine max); [15]", "result": 0}, {"measurement": "Plant response rating, Soybean", "setting": "soybean (Glycine max); [16]", "result": 0}, {"measurement": "Plant response rating, Soybean", "setting": "soybean (Glycine max); [17]", "result": 0}, {"measurement": "Soybean plant response rating", "setting": "soybean (Glycine max); Preemergence, scale 0 to 100", "result": 0}, {"measurement": "Velvetleaf plant response rating", "setting": "[6]; postemergence, 0-100 scale", "result": 0}, {"measurement": "Plant response rating, Velvetleaf", "setting": "[6]; [12]", "result": 0}, {"measurement": "Plant response rating, Velvetleaf", "setting": "[6]; [14]", "result": 0}, {"measurement": "Plant response rating, Velvetleaf", "setting": "[6]; [15]", "result": 0}, {"measurement": "Plant response rating, Velvetleaf", "setting": "[6]; [16]", "result": 0}, {"measurement": "Plant response rating, Velvetleaf", "setting": "[6]; [17]", "result": 0}, {"measurement": "Velvetleaf plant response rating", "setting": "[6]; Preemergence, scale 0 to 100", "result": 0}, {"measurement": "Wheat plant response rating", "setting": "[7]; postemergence, 0-100 scale", "result": 10}, {"measurement": "Plant response rating, Wheat", "setting": "[7]; [12]", "result": 45}, {"measurement": "Plant response rating, Wheat", "setting": "[7]; [14]", "result": 95}, {"measurement": "Plant response rating, Wheat", "setting": "[7]; [15]", "result": 0}, {"measurement": "Plant response rating, Wheat", "setting": "[7]; [16]", "result": 0}, {"measurement": "Plant response rating, Wheat", "setting": "[7]; [17]", "result": 90}, {"measurement": "Wheat plant response rating", "setting": "[7]; Preemergence, scale 0 to 100", "result": 0}, {"measurement": "Oat, Wild plant response rating", "setting": "wild oat (Avena fatua); postemergence, 0-100 scale", "result": 80}, {"measurement": "Plant response rating, Oat, Wild", "setting": "wild oat (Avena fatua); [12]", "result": 90}, {"measurement": "Plant response rating, Oat, Wild", "setting": "wild oat (Avena fatua); [13]", "result": 95}, {"measurement": "Plant response rating, Oat, Wild", "setting": "wild oat (Avena fatua); [14]", "result": 100}, {"measurement": "Plant response rating, Oat, Wild", "setting": "wild oat (Avena fatua); [15]", "result": 60}, {"measurement": "Plant response rating, Oat, Wild", "setting": "wild oat (Avena fatua); [16]", "result": 85}, {"measurement": "Plant response rating, Oat, Wild", "setting": "wild oat (Avena fatua); [17]", "result": 90}, {"measurement": "Oat, Wild plant response rating", "setting": "wild oat (Avena fatua); Preemergence, scale 0 to 100", "result": 0}, {"measurement": "Cupgrass, Woolly plant response rating", "setting": "[8]; postemergence, 0-100 scale", "result": 70}, {"measurement": "Plant response rating, Cupgrass, Woolly", "setting": "[8]; [12]", "result": 98}, {"measurement": "Plant response rating, Cupgrass, Woolly", "setting": "[8]; [13]", "result": 100}, {"measurement": "Plant response rating, Cupgrass, Woolly", "setting": "[8]; [14]", "result": 100}, {"measurement": "Plant response rating, Cupgrass, Woolly", "setting": "[8]; [15]", "result": 50}, {"measurement": "Plant response rating, Cupgrass, Woolly", "setting": "[8]; [16]", "result": 90}, {"measurement": "Plant response rating, Cupgrass, Woolly", "setting": "[8]; [17]", "result": 100}, {"measurement": "Cupgrass, Woolly plant response rating", "setting": "[8]; Preemergence, scale 0 to 100", "result": 0}, {"measurement": "Plant response rating, Barnyardgrass", "setting": "[9]; [18]", "result": 95}, {"measurement": "Plant response rating, Barnyardgrass", "setting": "[9]; [19]", "result": 95}, {"measurement": "Plant response rating, Barnyardgrass", "setting": "[9]; [20]", "result": 95}, {"measurement": "Plant response rating, Barnyardgrass", "setting": "[9]; [21]", "result": 20}, {"measurement": "Plant response rating, Ducksalad", "setting": "[10]; [19]", "result": 30}, {"measurement": "Plant response rating, Ducksalad", "setting": "[10]; [20]", "result": 40}, {"measurement": "Plant response rating, Ducksalad", "setting": "[10]; [21]", "result": 40}, {"measurement": "Plant response rating, Rice", "setting": "rice (Oryza sativa); [18]", "result": 75}, {"measurement": "Plant response rating, Rice", "setting": "rice (Oryza sativa); [19]", "result": 75}, {"measurement": "Plant response rating, Rice", "setting": "rice (Oryza sativa); [20]", "result": 85}, {"measurement": "Plant response rating, Rice", "setting": "rice (Oryza sativa); [21]", "result": 0}, {"measurement": "Plant response rating, Sedge, Umbrella", "setting": "[11]; [19]", "result": 70}, {"measurement": "Plant response rating, Sedge, Umbrella", "setting": "[11]; [20]", "result": 70}, {"measurement": "Plant response rating, Sedge, Umbrella", "setting": "[11]; [21]", "result": 20}]}]}
